Consider three compounds from paper PMC6804107, “Separation and Lipid Inhibition Effects of a Novel Decapeptide from Chlorella pyenoidose” (Molecules, 2019).

The target in test [1] is T1, porcine pancreatic lipase (PL) (Sus scrofa, UniProt P00591).
T1 construct: purchased Sigma
T1 sequence (P00591 1-450): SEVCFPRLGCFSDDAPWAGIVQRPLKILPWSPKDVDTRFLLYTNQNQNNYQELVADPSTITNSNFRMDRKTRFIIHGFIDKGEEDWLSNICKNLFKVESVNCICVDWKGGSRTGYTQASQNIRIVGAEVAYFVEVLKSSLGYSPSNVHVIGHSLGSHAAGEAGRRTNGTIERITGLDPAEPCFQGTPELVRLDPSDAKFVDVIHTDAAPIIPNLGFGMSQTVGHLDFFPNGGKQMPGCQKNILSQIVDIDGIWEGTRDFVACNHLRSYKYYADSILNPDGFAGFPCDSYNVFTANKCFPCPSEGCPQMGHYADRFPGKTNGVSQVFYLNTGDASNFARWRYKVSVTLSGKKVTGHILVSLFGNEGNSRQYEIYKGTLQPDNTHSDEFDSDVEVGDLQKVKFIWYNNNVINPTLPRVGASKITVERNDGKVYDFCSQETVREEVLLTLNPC
Description: Pancreatic lipase inhibition, Copper soap method. In kind it is biochemical. The conditions noted are these: olive oil substrate, PBS pH 7.38, triplicate. The procedure: Copper soap method: The lipase activity assay involved a reaction medium (10 mL) containing 1 mg of olive oil, 3 mL 0.0667 mol/L, pH = 7.38 phosphate buffer saline (PBS), and 0.1 mL (C = 1 mg/mL) of lipase in the presence of 1 mL peptides with different concentrations. The peptides solution was prepared by dissolving in the working solution and was then added to reaction mixtures just before the reaction. Control lipase activity was determined without peptides. All samples were analyzed in triplicate. (1) Inhibition%=1−(Aa−A0)−(Ab−A0)/(Aa−A0)×100% where Ab refers to the absorbance value of the normal group; A0 is referred to the absorbance value of blank; and Aa is the absorbance values of the control group.

For test [2], the system named is 3T3-L1 adipocytes. The test can be described thus: Intracellular triacylglycerol in 3T3-L1 adipocytes. The format is cell-based. The conditions noted are these: for decrease of intracellular triacylglycerol accumulation: 3T3-L1 cells. The procedure: (§1) First, 3T3-L1 cells were cultured in Dulbecco’s modified Eagle’s medium (DMEM) medium containing 10% (v/v) fatal bovine serum (FBS) and 1% antibiotics in a humidified atmosphere of 5% CO2 at 37 °C. For cell toxicity assessment, 3T3-L1 cells (1 × 10^5) were seeded in a 96-well plate for 24 h. After that, the cells were incubated for 6 days in DMEM containing various concentrations (0–1.0 mg/mL) of the synthetic PP1. Cell toxicity was measured by MTT according to the instructions indicated by the manufacturer. For cell differentiation, 3T3-L1 cells were seeded in 6-well plates at a density of 2 × 10^5 cells/well. Then, the medium was changed by DMEM with insulin (5 μg/mL; Sigma), 1 μM of dexamethasone (Sigma), and 0.5 mM of 3-isobutyl-1-methylxanthine. On day 3, the medium was replaced with DMEM containing insulin (5 μg/mL; Sigma) and 10% (v/v) FBS every 3 days. Various concentrations of the synthetic PP1 were attendant during the whole process of differentiation induction. Oil Red O staining of the intracellular lipids was carried out, as described previously. Moreover, intracellular triacylglycerol levels were measured by using an Assay Triglyceride Kit. Protein concentrations were determined with BCA Protein Assay.

The subject of the next test is C/EBPα. The test can be described thus: Western blot, C/EBPα expression. In kind it is cell-based. The conditions noted are these: PP1 600 μg/mL, 3T3-L1 adipocytes. As for the experimental part:
(§2) Cells were lysed in Radio Immunoprecipitation Assay (RIPA) buffer for 1 h and then centrifuged at 12,000 rpm for 25 min at 4 °C. The protein concentrations were determined by using a BCA protein assay kit. The supernatants were mixed with 4 × Sodium dodecyl sulfate (SDS) sample buffer and boiled for 10 min. The samples were run on a 4–15% SDS polyacrylamide gel and then transferred to a polyvinylidene difluoride membrane. The membrane was blocked with 5% (w/v) bovine serum albumin (BSA) for 30 min and then incubated with primary antibodies at 4 °C overnight. After washing with Tris-Buffered Saline and Tween 20 (TBST) 3 times, the membranes were washed with TBST and incubated with the secondary antibodies. Signals were detected with a scanner (Thermo Fisher Scientific, Inc.), and the fluorescence intensity was measured using Image software.

A further test relates to AMPKα. Description: Western blot, AMPKα expression. The following applies: PP1 600 μg/mL, 3T3-L1 adipocytes. In kind it is cell-based. As for the experimental part: as §2
The next test concerns PPARγ. Description: Western blot, PPARγ expression. In kind it is cell-based. The following applies: PP1 600 μg/mL, 3T3-L1 adipocytes. The procedure:
as §2

In the next test the test system is SREBP-1c. Description: Western blot, SREBP-1c expression. In kind it is cell-based. The conditions noted are these: PP1 600 μg/mL, 3T3-L1 adipocytes. The procedure: as §2
The test system of test [3] is 3T3-L1 adipocytes. Description: Lipid accumulation / differentiation in 3T3-L1 cells (Oil Red O). In kind it is cell-based. As for the experimental part:
as §1

The mark [4] stands for this setting: Table 2, Alcalase hydrolysate fractions and positive drugs, mean ± SD, test concentration not given.

In the case of `CCCCCCCCCCC[C@@H](C[C@@H]1OC(=O)[C@H]1CCCCCC)OC(=O)[C@H](CC(C)C)NC=O` [Orlistat], the “Inhibition of Pancreatic Lipase” value in test [1] (setting [4]) worked out at 88.85 ± 2.42%.
Take `CCC(C)(C)C(=O)O[C@H]1C[C@@H](C)C=C2C=C[C@H](C)[C@H](CC[C@@H]3C[C@@H](O)CC(=O)O3)[C@H]21` [simvastatin, reference compound]: the “decrease of intracellular triacylglycerol accumulation” value in the test with 3T3-L1 adipocytes [2] (simvastatin 10 μM, positive drug) turned out to be 24.1%. In addition, the “Inhibition of Pancreatic Lipase” value in test [1] (setting [4]) is 35.2 ± 1.9%.
As for “Leu-Leu-Val-Val-Try-Pro-Trp-Thr-Gln-Arg (LLVVYPWTQR) [PP1, synthetic decapeptide identified from A2 fraction of Alcalase hydrolysate]”, the C/EBPα protein level entry with C/EBPα was “decreased the levels of C/EBPα”. Besides, in the test on AMPKα, the AMPKα protein expression entry is recorded as “significantly increased the expression of AMPKα”. In the test on PPARγ, the PPARγ protein level result was “decreased the levels of C/EBPα, SREBP-1c, and PPARγ”. In addition, in the test on SREBP-1c, the SREBP-1c protein level result is listed as “decreased the levels of C/EBPα, SREBP-1c”. The “decrease of intracellular triacylglycerol accumulation” value in the test on 3T3-L1 adipocytes [2] (PP1 600 μg/mL) is listed as 27.9%. The intracellular triacylglycerol level in the test on 3T3-L1 adipocytes [2] (PP1 600 μg/mL during differentiation, p < 0.05, mature adipocyte (model) 82.98 ± 11.2, pre-adipocytes 25.98 ± 1.6) is given as 59.82 ± 6.78 nmol/mg protein. In addition, in test [1] (synthetic peptide at 200 μg/mL), the “Inhibition of Pancreatic Lipase” value stood at 47.95%. For the same compound, the differentiation inhibition result with 3T3-L1 adipocytes [3] (3T3-L1 pre-adipocytes) is given as “good differentiation inhibition activity”. Moreover, the “number of intracellular lipid droplets” value in the test with 3T3-L1 adipocytes [3] (Oil Red O, PP1 present during differentiation, compared with model group) is listed as “clearly decreased compared with that in the model group”.
